Measured values: patent US5135955A, “Propanamine derivatives” (Eli Lilly and Company, priority 1989, dated 1992)
Counter-ions that a name gives are not always drawn.

Tested on: thromboplastin clotting time in human plasma
Assay: prothrombin time test (thromboplastin clotting time in human plasma)
Assay type: biochemical
Conditions: for plasma prothrombin time: 37° C., human plasma
Description: Briefly, to 0.1 ml of each of human plasma, normal saline and thromboplastin was added 0.03 ml of the test compound of the present invention (2 mg/ml in 50 percent methanol). The clotting time was measured at 37° C. with a Fibrometer.
^a Expressed in seconds
^b Concentration of compound tested in micrograms per milliliter of […]

[1] = 180 micrograms per milliliter of plasma
[2] = 45 micrograms per milliliter of plasma
[3] = 90 micrograms per milliliter of plasma
[4] = 22 micrograms per milliliter of plasma
[5] = 11 micrograms per milliliter of plasma

Compound	plasma prothrombin time [1]	plasma prothrombin time [2]	plasma prothrombin time [3]	other results
CCCCCCCCOc1ccc(CC(CN)c2ccc(-c3ccccc3)cc2)cc1 (racemic) [Example 11, (±)-β-[[4-(Octyloxy)phenyl]methyl][1,1'-biphenyl-4-ethanamine hydrochloride]	20 s	–	–	–
CCCCC(CC)COc1ccc(CC(CN)c2ccccc2)cc1.Cl (stereo not drawn) [Example 3, 4-[(2-Ethylhexyl)oxy]-β-phenylbenzenepropanamine hydrochloride]	–	–	–	prothrombin time (28 micrograms per ml): 16 s; prothrombin time (69 micrograms per ml): 25 s; prothrombin time (139 micrograms per ml): 80 s
CCCCCCCOc1ccc(CC(CN)c2ccccc2)cc1.Cl (stereo not drawn) [Example 5, 4-(Heptyloxy)-β-phenylbenzenepropanamine hydrochloride]	190 s	25 s	53 s	–
Cl.NCC(Cc1ccc(-c2ccccc2)cc1)c1ccccc1 (stereo not drawn) [Example 7, β-Phenyl[1,1'-biphenyl]-4-propanamine hydrochloride]	> 300 s	36 s	200 s	plasma prothrombin time [4]: 25 s
COc1ccc(C(CN)Cc2ccc(-c3ccccc3)cc2)cc1OC (stereo not drawn) [Example 8, β-(3,4-Dimethoxy)phenyl[1,1'-biphenyl]-4-propanamine hydrochloride]	130 s	23 s	45 s	–
COc1ccc(C(CN)Cc2ccc(-c3ccccc3)cc2)cc1 (stereo not drawn) [Example 9, β-(4-Methoxy)phenyl[1,1'-biphenyl]-4-propanamine]	25 s	–	–	–
CCCCCCOc1ccc(CC(CN)c2ccc3ccccc3c2)cc1.Cl (stereo not drawn) [Example 10, β-[[4-(Hexyloxy)phenyl]methyl]-2-naphthaleneethanamine hydrochloride]	60 s	–	–	–
CCCCCOc1ccc(CC(CN)c2ccc(-c3ccccc3)cc2)cc1.Cl (stereo not drawn) [Example 12, β-[[4-(Pentyloxy)phenyl]methyl][1,1'-biphenyl]-4-ethanamine hydrochloride]	75 s	21 s	33 s	–
CCCCCCCOc1ccc(CC(CN)c2ccc(C(CN)Cc3ccc(OCCCCCCC)cc3)cc2)cc1.Cl.Cl (stereo not drawn) [Example 13, β,β'-Bis[[4-(heptyloxy)phenyl]methyl]-1,4-benzenediethanamine dihydrochloride]	200 s	–	–	–
CC(C)c1ccc(CC(CN)c2ccccc2)cc1.Cl (stereo not drawn) [Example 14, 4-(1-Methylethyl)-β-phenylbenzenepropanamine hydrochloride]	101 s	–	–	–
CCCCCOc1ccc(CC(CN)c2ccc(OC)c(OC)c2)cc1 (stereo not drawn) [Example 15, 4-(Pentyloxy)-β-3,4-(dimethoxy)phenylbenzenepropanamine]	80 s	21 s	30 s	–
CCCCCCCCOc1ccc(CC(CN)c2ccc(OC)c(OC)c2)cc1 (stereo not drawn) [Example 17, 4-(Octyloxy)-β-(3,4-dimethoxy)phenylbezenenepropanamine hydrochloride]	240 s	48 s	81 s	plasma prothrombin time [4]: 21 s
CCCCCCCCOc1ccc(CC(CN)c2cc(OC)c(OC)c(OC)c2)cc1 (stereo not drawn) [Example 18, 4-(Octyloxy)-β-(3,4,5-trimethoxy)phenylbenzenepropanamine hydrochloride]	125 s	–	–	–
CCCCCOc1ccc(CC(CN)c2ccc(OC)c(OC)c2OC)cc1 (stereo not drawn) [Example 19, 4-(Pentyloxy)-β-(2,3,4-trimethoxy)phenylbenzenepropanamine hydrochloride]	174 s	–	–	–
CCCCCCCOc1ccc(CC(CN)c2ccc(OC)c(OC)c2)cc1 (stereo not drawn) [Example 20, 4-(Heptyloxy)-β-(3,4-dimethoxy)phenylbenzenepropanamine]	> 200 s	36 s	74 s	–
COc1ccc(C(CN)Cc2ccc(OC)c3ccccc23)cc1OC (stereo not drawn) [Example 23, β(3,4-Dimethoxy)phenyl-1-(4-methoxy)naphthalenepropanamine hydrochloride]	101 s	–	–	–
COc1ccc(C(CN)Cc2cccc3ccccc23)cc1 (stereo not drawn) [Example 24, β-(4-Methoxy)phenyl-1-naphthalenepropanamine]	48 s	22 s	28 s	–
COc1cccc(C(CN)Cc2ccc3ccccc3c2)c1OC (stereo not drawn) [Example 25, β-(2,3-Dimethoxyphenyl)-2-naphthalenepropanamine]	50 s	22 s	29 s	–
CCCCCCOc1ccc(CC(CNCC)c2ccccc2)cc1 (stereo not drawn) [Example 28, N-Ethyl-4-(hexyloxy)-β-phenylbenzenepropanamine]	110 s	23 s	35 s	plasma prothrombin time [4]: 17 s
CCCCCCOc1ccc(CC(CNC)c2ccccc2)cc1 (stereo not drawn) [Example 29, N-Methyl-4-(hexyloxy)-β-phenylbenzenepropanamine]	87 s	17 s	31 s	–
CCCCCCOc1ccc(CC(CNC(C)C)c2ccccc2)cc1.Cl (stereo not drawn) [Example 30, N-Isopropyl-4-(hexyloxy)-β-phenylbenzenepropanamine hydrochloride]	69 s	–	–	–
CCCCCCOc1ccc(CC(CNCCN(C)C)c2cc(OC)c(OC)c(OC)c2)cc1.Cl.Cl (stereo not drawn) [Example 31, N'-[3-[4-(Hexyloxy)phenyl]-2-(3,4,5-trimethoxyphenyl)-propyl]-N,N-dimethyl-1,2-ethanediamine dihydrochloride]	150 s	–	–	–
Cl.NCC(Cc1ccc2c(c1)OCO2)c1ccc(-c2ccccc2)cc1 (stereo not drawn) [Example 32, β-[1,1'-Biphenyl]-4-yl-1,3-benzodioxole-5-propanamine hydrochloride]	222 s	27 s	66 s	–
CNCC(Cc1ccc2c(c1)OCO2)c1ccccc1.Cl (stereo not drawn) [Example 33, N-Methyl-β-phenyl-1,3-benzodioxole-5-propanamine hydrochloride]	18 s	–	–	–
Cl.NCC(Cc1ccc2c(c1)OCO2)c1ccccc1 (stereo not drawn) [Example 34, β-Phenyl-1,3-benzodioxole-5-propanamine hydrochloride]	21 s	–	–	–
NCC(Cc1ccc(C(F)(F)F)cc1)c1ccccc1 (stereo not drawn) [Example 35, β-Phenyl-4-(trifluoromethyl)benzenepropanamine]	68 s	–	–	–
NC(CCc1ccc(OCC2CCCCC2)cc1)C1CC1 (stereo not drawn) [Example 37, 4-(Cyclohexylmethoxy)-α-cyclopropylbenzenepropanamine hydrochloride]	–	–	–	plasma prothrombin time [5]: 22 s
CCC(CCc1ccc(OCC2CCCCC2)cc1)N(C)C (stereo not drawn) [Example 38, 4-(Cyclohexylmethoxy)-α-ethyl-N,N-dimethylbenzenepropanamine hydrochloride]	–	–	–	plasma prothrombin time [5]: 22 s
